From US10913738B2 (BRISTOL-MYERS SQUIBB COMPANY, priority 2017, dated 2021) come the findings set out here.

Where two headings read alike, the source gives them in different places. Where only a bound is given, the exact number is not on record here.

The target of test [1] is T1, His-GST-TVMV-hRIPK1(1-324) (Homo sapiens, UniProt Q13546).
T1 construct: The coding region of human RIPK1(1-324) flanked by NdeI site at 5′ end; made in house; host or cells: Spodoptera frugiperda (Sf9) insect cells, baculovirus
T1 sequence (Q13546 1-324): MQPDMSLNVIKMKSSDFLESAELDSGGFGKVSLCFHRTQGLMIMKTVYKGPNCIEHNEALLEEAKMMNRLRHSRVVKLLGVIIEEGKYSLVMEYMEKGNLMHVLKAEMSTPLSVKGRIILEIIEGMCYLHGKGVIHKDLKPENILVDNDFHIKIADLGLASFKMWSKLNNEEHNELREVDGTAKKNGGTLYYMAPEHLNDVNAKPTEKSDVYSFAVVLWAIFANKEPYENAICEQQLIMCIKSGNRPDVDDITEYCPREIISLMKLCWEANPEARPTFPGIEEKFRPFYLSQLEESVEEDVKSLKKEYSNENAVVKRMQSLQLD
Briefly: RIPK1 HTRF Binding Assay. A general note: Time-resolved FRET reads energy transfer from a long-lived donor to a nearby acceptor.

In test [2] the test system is MLKL phosphorylation in HT29-L23 human colorectal adenocarcinoma cells. Briefly: MLKL Phosphorylation High-Content Assay. The class given is cell-based. The note with it: Homo sapiens. The essentials:
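IC50 and Ymax obtained by 4-parameter logistic fitting of MLKL phosphorylation, measured as mean circ-ring average intensity ratio from high-content images. Staining used an anti-phospho-S358 MLKL antibody overnight at 4° C., following six-hour cell incubation at 37° C.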

Setting [3] is: x marks IC50 class 20-200 nM, read-out: RIPK1 HTRF binding 20-200 nM.
Setting [4] is: x marks IC50 class 20-200 nM, read-out: pMLKL cell activity 20-200 nM.
Where [5] appears, read: x marks IC50 class <20 nM, read-out: RIPK1 HTRF binding <20 nM.
The mark [6] stands for this setting: x marks IC50 class >200 nM, read-out: pMLKL cell activity >200 nM.
The mark [7] stands for this setting: x marks IC50 class <20 nM, read-out: pMLKL cell activity <20 nM.

`[2H]C([2H])(NC(=O)c1cc(-c2ccn3nc(N)nc3c2)cnc1OC)c1cc(C(F)(F)F)ccc1F` [Example 349, 5-(2-amino-[1,2,4]triazolo[1,5-a]pyridin-7-yl)-N-((2-fluoro-5-(trifluoromethyl)phenyl)methyl-d2)-2-methoxynicotinamide]: the IC50 in test [1] (setting [3]) and in test [2] (setting [4]) was 20 to 200 nM each time.
For the molecule `[2H]C([2H])(NC(=O)c1cc(-c2ccn3nc(N)nc3c2)c(C)nc1OC)c1cc(C(F)(F)F)ccc1F` [Example 331, 5-(2-amino-[1,2,4]triazolo[1,5-a]pyridin-7-yl)-N-((2-fluoro-5-(trifluoromethyl)phenyl)methyl-d2)-2-methoxy-6-methylnicotinamide], the results for the IC50 in test [1] (setting [5]) and in test [2] (setting [4]) were less than 20 nM and 20 to 200 nM, respectively.
In the case of `Cc1cnc(-c2ccn3nc(N)nc3c2)cc1C(=O)NCc1cc(C(F)(F)F)ccc1F` [Example 398, 2-(2-amino-[1,2,4]triazolo[1,5-a]pyridin-7-yl)-N-(2-fluoro-5-(trifluoromethyl)benzyl)-5-methylisonicotinamide], the IC50 in test [1] (setting [3]) and in test [2] (setting [4]) was 20 to 200 nM throughout.
For `COc1nc(C)c(-c2ccn3nc(N)nc3c2)cc1C(=O)NCc1cc(F)cc(F)c1OCC1CCCC1` [Example 208, 5-{2-amino-[1,2,4]triazolo[1,5-a]pyridin-7-yl}-N-{[2-(cyclopentylmethoxy)-3,5-difluorophenyl]methyl}-2-methoxy-6-methylpyridine-3-carboxamide], the IC50 was less than 20 nM in test [1] (setting [5]) and 20 to 200 nM in test [2] (setting [4]).
For `COc1nc(C)c(-c2ccn3nc(N)nc3c2)cc1C(=O)NCc1cc(F)ccc1OCC1CCCC1` [Example 206, 5-{2-amino-[1,2,4]triazolo[1,5-a]pyridin-7-yl}-N-{[2-(cyclopentylmethoxy)-5-fluorophenyl]methyl}-2-methoxy-6-methylpyridine-3-carboxamide] the same measures were less than 20 nM and 20 to 200 nM.
For `COc1ncc(C(=O)NCc2c(F)cccc2OCC2CCC2)cc1-c1ccn2nc(N)nc2c1` [Example 25, 5-{2-Amino-[1,2,4]triazolo[1,5-a]pyridin-7-yl}-N-{[2-(cyclobutylmethoxy)-6-fluorophenyl]methyl}-6-methoxypyridine-3-carboxamide] the same measures were less than 20 nM and 20 to 200 nM.
For `COc1ncc(-c2ccn3nc(N)nc3c2)cc1C(=O)NCc1c(F)cccc1OC(C)C` [Example 29, 5-{2-Amino-[1,2,4]triazolo[1,5-a]pyridin-7-yl}-N-{[2-fluoro-6-(propan-2-yloxy)phenyl]methyl}-2-methoxypyridine-3-carboxamide] the same measures were less than 20 nM and 20 to 200 nM.
Turning to `Cc1ncc(-c2ccn3nc(N)nc3c2)cc1C(=O)NCc1cc(F)cc(F)c1OC1CCOC(C)C1` (stereo not shown) [Example 316, 5-(2-amino-[1,2,4]triazolo[1,5-a]pyridin-7-yl)-N-(3,5-difluoro-2-((2-methyltetrahydro-2H-pyran-4-yl)oxy)benzyl)-2-methylnicotinamide], the IC50 in test [1] (setting [3]) is 20 to 200 nM; in test [2] (setting [6]) it was more than 200 nM.
As for `Nc1nc2cc(-c3cc(C(=O)NCc4ccccc4OC(F)(F)F)cnc3Cl)ccn2n1` [Example 372, 5-(2-amino-[1,2,4]triazolo[1,5-a]pyridin-7-yl)-6-chloro-N-(2-(trifluoromethoxy)benzyl)nicotinamide], the IC50 in test [1] (setting [5]) is less than 20 nM; in test [2] (setting [6]) it was more than 200 nM.
As to `Cc1nc(C)c(-c2ccn3nc(N)nc3c2)cc1C(=O)NCCc1cccc(OC(F)(F)F)c1` [Example 175, 5-{2-amino-[1,2,4]triazolo[1,5-a]pyridin-7-yl}-2,6-dimethyl-N-{2-[3-(trifluoromethoxy)phenyl]ethyl}pyridine-3-carboxamide], the IC50 in test [1] (setting [5]) and in test [2] (setting [7]) was less than 20 nM each time.
For `COc1ncc(-c2ccn3nc(N)nc3c2)cc1C(=O)N(C)Cc1cccc(OC(F)(F)F)c1` [Example 162, 5-{2-amino-[1,2,4]triazolo[1,5-a]pyridin-7-yl}-2-methoxy-N-methyl-N-{[3-(trifluoromethoxy)phenyl]methyl}pyridine-3-carboxamide], the IC50 in test [1] (setting [5]) is less than 20 nM; in test [2] (setting [4]), 20 to 200 nM.
`[2H]C([2H])([2H])N(Cc1cc(OC(F)(F)F)ccc1F)C(=O)c1cc(-c2ccn3nc(N)nc3c2)cnc1OC` [Example 367, 5-(2-amino-[1,2,4]triazolo[1,5-a]pyridin-7-yl)-N-(2-fluoro-5-(trifluoromethoxy)benzyl)-2-methoxy-N-(methyl-d3)nicotinamide]: the IC50 in test [1] (setting [5]) and in test [2] (setting [7]) was less than 20 nM in each case.
With `COc1nc(C)c(-c2ccn3nc(N)nc3c2)cc1C(=O)NCc1cc(F)ccc1C(=O)N1CCC(F)(F)C1` [Example 381, 5-(2-amino-[1,2,4]triazolo[1,5-a]pyridin-7-yl)-N-(2-(3,3-difluoropyrrolidine-1-carbonyl)-5-fluorobenzyl)-2-methoxy-6-methylnicotinamide], the IC50 in test [1] (setting [5]) and in test [2] (setting [7]) was less than 20 nM each time.
For the molecule `[2H]C([2H])([2H])Oc1nc(C)c(-c2ccn3nc(N)nc3c2)cc1C(=O)NCc1cc(F)cc(F)c1OC([2H])([2H])C1CC1` [Example 282, 5-(2-Amino-[1,2,4]triazolo[1,5-a]pyridin-7-yl)-N-(2-(cyclopropylmethoxy-d2)-3,5-difluorobenzyl)-2-(methoxy-d3)-6-methylnicotinamide], the IC50 in test [1] (setting [5]) and in test [2] (setting [7]) was less than 20 nM each time.
Turning to `CCOc1ncc(-c2ccn3nc(N)nc3c2)cc1C(=O)NCc1ccccc1Oc1ccccc1` [Example 277, 5-{2-amino-[1,2,4]triazolo[1,5-a]pyridin-7-yl}-2-ethoxy-N-[(2-phenoxyphenyl)methyl]pyridine-3-carboxamide], the IC50 in test [1] (setting [5]) and in test [2] (setting [7]) was less than 20 nM each time.
In the case of `Cc1ncc(-c2ccn3nc(N)nc3c2)cc1C(=O)NCc1c(F)cc(F)cc1OCC1CCCC1` [Example 228], the IC50 in test [1] (setting [5]) is less than 20 nM; in test [2] (setting [4]), 20 to 200 nM.
For `COc1ncc(-c2ccn3nc(N)nc3c2)cc1C(=O)NCc1ncccc1OCC1CCCC1` [Example 124, 5-{2-amino-[1,2,4]triazolo[1,5-a]pyridin-7-yl}-N-{[3-(cyclopentylmethoxy)pyridin-2-yl]methyl}-2-methoxypyridine-3-carboxamide] the same measures were less than 20 nM and 20 to 200 nM.
As for `COc1ncc(-c2ccn3nc(N)nc3c2)cc1C(=O)N1CCOC(c2ccccc2)C1` (stereo not shown) [Example 425], the IC50 is more than 200 nM in test [1] (x marks IC50 class >200 nM, read-out: RIPK1 HTRF binding >200 nM) and more than 200 nM in test [2] (setting [6]).
For the molecule `[2H]C([2H])([2H])[C@@H](NC(=O)c1cc(-c2ccn3nc(N)nc3c2)c(C)nc1C)c1cc(C(F)(F)F)ccc1F` [Example 289, (R)-5-(2-amino-[1,2,4]triazolo[1,5-a]pyridin-7-yl)-N-(l-(2-fluoro-5-(trifluoromethyl)phenyl)ethyl-2,2,2-d3)-2,6-dimethylnicotinamide], the IC50 in test [1] (setting [5]) is less than 20 nM; in test [2] (setting [4]) it was 20 to 200 nM.
`COc1nc(C)c(-c2ccn3nc(N)nc3c2)cc1C(=O)NCc1ccccc1OCC1CCC(F)(F)CC1` [Example 11, 5-{2-Amino-[1,2,4]triazolo[1,5-a]pyridin-7-yl}-N-({2-[(4,4-difluorocyclohexyl)methoxy]phenyl}methyl)-2-methoxy-6-methylpyridine-3-carboxamide]: the IC50 is less than 20 nM in test [1] (setting [5]) and more than 200 nM in test [2] (setting [6]).
